For assay [1], the target named is Pim1 kinase (Homo sapiens (Human), UniProt P11309). Conditions: read-out: Pim1 IC50.
Assay [2] addresses Pim3 kinase (Homo sapiens (Human), UniProt Q86V86). Conditions: read-out: Pim3 IC50.

Structures are written as SMILES.

Data on 29 compounds can be found in US8592455B2 (priority 2008, dated 2013).

A word on the IC50: it is the point on the concentration scale where inhibition reaches its midpoint.

Sequence of Pim1 kinase (P11309 whole entry): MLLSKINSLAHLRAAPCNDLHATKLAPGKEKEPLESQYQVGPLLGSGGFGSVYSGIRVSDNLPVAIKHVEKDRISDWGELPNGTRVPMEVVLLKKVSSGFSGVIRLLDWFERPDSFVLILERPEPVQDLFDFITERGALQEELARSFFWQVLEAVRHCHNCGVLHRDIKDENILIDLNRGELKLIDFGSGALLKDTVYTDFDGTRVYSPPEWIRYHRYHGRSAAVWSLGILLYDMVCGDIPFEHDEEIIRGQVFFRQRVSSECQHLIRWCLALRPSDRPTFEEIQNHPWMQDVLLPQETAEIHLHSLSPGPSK

On to `C[C@@H]1C[C@H](c2ccncc2NC(=O)c2cccc(-c3c(F)cccc3F)n2)C[C@H](N)[C@H]1O` (stereo in doubt) [Example 52, N-(4-((1S,3S,4S,5R)-3-amino-4-hydroxy-5-methylcyclohexyl)pyridin-3-yl)-6-(2,6-difluorophenyl)picolinamide], for which the IC50 was 1 nM in assay [1] and 2 nM in assay [2].

As for `C[C@H]1C[C@@H](c2ccncc2NC(=O)c2ccc(F)c(C3CCCCC3)n2)C[C@@H](N)[C@@H]1O` (stereo in doubt) [Example 89, N-(4-(3-amino-4-hydroxy-5-methylcyclohexyl)pyridin-3-yl)-6-cyclohexyl-5-fluoropicolinamide], the IC50 was 8 nM in assay [1] and 29 nM in assay [2].

Take `C[C@H]1C[C@@H](c2ccncc2NC(=O)c2nc(C3CCCCC3)ccc2N)C[C@@H](N)[C@@H]1O` (stereo in doubt) [Example 90, 3-amino-N-(4-(3-amino-4-hydroxy-5-methylcyclohexyl)pyridin-3-yl)-6-cyclohexylpicolinamide]: the IC50 turned out to be 3 nM in assay [1] and 12 nM in assay [2].

In the case of `C[C@@H]1C[C@H](N)C[C@H](c2ccncc2NC(=O)c2ccc(F)c(C3CCCCC3)n2)C1` (stereo in doubt) [Example 91, N-(4-(3-amino-5-methylcyclohexyl)pyridin-3-yl)-6-cyclohexyl-5-fluoropicolinamide], the IC50 in assay [1] was determined as 3 nM; in assay [2], 21 nM.

With `CC(=O)O[C@H]1CC[C@@H](c2ccncc2NC(=O)c2nc(-c3c(F)cccc3F)ccc2N)C[C@H]1N` (stereo in doubt) [Example 101, 2-amino-4-(3-(3-amino-6-(2,6-difluorophenyl)picolinamido)pyridin-4-yl)cyclohexyl acetate], the results for the IC50 in assay [1] and in assay [2] were 2 nM and 5 nM, respectively.

Turning to `C[C@H]1C[C@@H](c2ccncc2NC(=O)c2nc(-c3c(F)cccc3F)c(F)cc2N)C[C@@H](N)[C@@H]1O` (stereo in doubt) [Example 130, 3-amino-N-(4-(3-amino-4-hydroxy-5-methylcyclohexyl)pyridin-3-yl)-6-(2,6-difluorophenyl)-5-fluoropicolinamide], in assay [1], the IC50 came out at 2 nM.

Regarding `Nc1cc(F)c(-c2c(F)cccc2F)nc1C(=O)Nc1cnccc1[C@@H]1CC[C@H](O)[C@H](N)C1` (stereo in doubt) [Example 131, 3-amino-N-(4-(3-amino-4-hydroxycyclohexyl)pyridin-3-yl)-6-(2,6-difluorophenyl)-5-fluoropicolinamide], the IC50 in assay [1] was 2 nM.

For the compound `C[C@H]1C[C@@H](c2ccncc2NC(=O)c2nc(-c3c(F)cccc3F)c(F)cc2N)C[C@@H](N)[C@H]1O` (stereo in doubt) [Example 132, 3-amino-N-(4-(3-amino-4-hydroxy-5-methylcyclohexyl)pyridin-3-yl)-6-(2,6-difluorophenyl)-5-fluoropicolinamide], the IC50 in assay [1] turned out to be 1 nM.

In the case of `C[C@@H]1C[C@H](N)C[C@H](c2ccncc2NC(=O)c2nc(-c3c(F)cccc3F)c(F)cc2N)C1` (stereo in doubt) [Example 133, 3-amino-N-(4-(3-amino-5-methylcyclohexyl)pyridin-3-yl)-6-(2,6-difluorophenyl)-5-fluoropicolinamide], the values for the IC50 in assay [1] and in assay [2] were 1 nM and 7 nM, respectively.

In the case of `C[C@H]1C[C@@H](c2ccncc2NC(=O)c2ccc(F)c(-c3c(F)cc(O)cc3F)n2)C[C@@H](N)[C@@H]1O` [Example 4, N-(4-((1R,3R,4R,5S)-3-amino-4-hydroxy-5-methylcyclohexyl)pyridin-3-yl)-6-(2,6-difluoro-4-hydroxyphenyl)-5-fluoropicolinamide], the figures for the IC50 in assay [1] and in assay [2] were 1 nM and 2 nM, respectively.

`C[C@H]1C[C@@H](c2ccncc2NC(=O)c2ccc(F)c(-c3cc(O)ccc3F)n2)C[C@@H](N)[C@@H]1O` [Example 5, N-(4-((1R,3R,4R,5S)-3-amino-4-hydroxy-5-methylcyclohexyl)pyridin-3-yl)-5-fluoro-6-(2-fluoro-5-hydroxyphenyl)picolinamide]: the IC50 in assay [1] was found to be 3 nM; in assay [2], 9 nM.

With `N[C@H]1CCC[C@@H](c2ccncc2NC(=O)c2cccc(-c3cc(O)ccc3F)n2)C1` [Example 7, N-(4-((1R,3S)-3-aminocyclohexyl)pyridin-3-yl)-6-(2-fluoro-5-hydroxyphenyl)picolinamide], the IC50 in assay [1] came out at 1 nM; in assay [2] it was 2 nM.

As to `N[C@H]1CCC[C@@H](c2ccncc2NC(=O)c2cccc(-c3c(F)cc(O)cc3F)n2)C1` [Example 8, N-(4-((1R,3S)-3-aminocyclohexyl)pyridin-3-yl)-6-(2,6-difluoro-4-hydroxyphenyl)picolinamide], the values for the IC50 in assay [1] and in assay [2] were 1 nM and 2 nM, respectively.

Regarding `N[C@H]1CCC[C@@H](c2ccncc2NC(=O)c2ccc(F)c(-c3ccc(O)cc3F)n2)C1` [Example 9, N-(4-((1R,3S)-3-aminocyclohexyl)pyridin-3-yl)-5-fluoro-6-(2-fluoro-4-hydroxyphenyl)picolinamide], the values for the IC50 in assay [1] and in assay [2] were 1 nM and 2 nM, respectively.

Turning to `CC1(C)C[C@H](N)C[C@H](c2ccncc2NC(=O)c2ccc(F)c(-c3ccc(O)cc3F)n2)C1` [Example 10, N-(4-((1R,5R)-5-amino-3,3-dimethylcyclohexyl)pyridin-3-yl)-5-fluoro-6-(2-fluoro-4-hydroxyphenyl)picolinamide], the IC50 came to 1 nM in assay [1] and 6 nM in assay [2].

Consider `C[C@H]1CN(c2ccncc2NC(=O)c2ccc(F)c(C3CCCCC3)n2)C[C@@H](N)[C@@H]1O` [Example 16, N-(4-((3R,4R,5S)-3-amino-4-hydroxy-5-methylpiperidin-1-yl)pyridin-3-yl)-6-cyclohexyl-5-fluoropicolinamide], for which the half-maximal inhibitory concentration (IC50) in assay [1] came to 1 nM.

Turning to `C[C@H]1CN(c2ccncc2NC(=O)c2ccc(F)c(-c3ccccc3F)n2)C[C@@H](N)[C@@H]1O` [Example 25, N-(4-((3R,4R,5S)-3-amino-4-hydroxy-5-methylpiperidin-1-yl)pyridin-3-yl)-5-fluoro-6-(2-fluorophenyl)picolinamide], in assay [1], the IC50 was determined as 1 nM.

For the compound `C[C@H]1CN(c2ccncc2NC(=O)c2cccc(-c3c(F)cccc3F)n2)C[C@@H](N)[C@@H]1O` [Example 26, N-(4-((3R,4R,5S)-3-amino-4-hydroxy-5-methylpiperidin-1-yl)pyridin-3-yl)-6-(2,6-difluorophenyl)picolinamide], the IC50 in assay [1] was found to be 1 nM.

For the compound `C[C@@H]1C[C@H](N)C[C@H](c2ccncc2NC(=O)c2nc(-c3c(F)cc(O)cc3F)ccc2F)C1` [Example 42, N-(4-((1R,3S,5S)-3-amino-5-methylcyclohexyl)pyridin-3-yl)-6-(2,6-difluoro-4-hydroxyphenyl)-3-fluoropicolinamide], the IC50 in assay [1] is 1 nM.

In the case of `COc1ccc(F)c(-c2nc(C(=O)Nc3cnccc3[C@@H]3C[C@H](C)C[C@H](N)C3)ccc2F)c1` [Example 45, N-(4-((1R,3S,5S)-3-amino-5-methylcyclohexyl)pyridin-3-yl)-5-fluoro-6-(2-fluoro-5-methoxyphenyl)picolinamide], the IC50 in assay [1] stood at 1 nM.

Regarding `C[C@@H]1C[C@H](N)C[C@H](c2ccncc2NC(=O)c2ccc(F)c([C@H]3CC[C@@H](O)CC3)n2)C1` [Example 54, N-(4-((1R,3S,5S)-3-amino-5-methylcyclohexyl)pyridin-3-yl)-5-fluoro-6-((1s,4s)-4-hydroxycyclohexyl)picolinamide], the IC50 in assay [1] stood at 3 nM.

Regarding `C[C@@H]1C[C@H](N)C[C@H](c2ccncc2NC(=O)c2ccc(F)c([C@H]3CC[C@H](O)CC3)n2)C1` [Example 55, N-(4-((1R,3S,5S)-3-amino-5-methylcyclohexyl)pyridin-3-yl)-5-fluoro-6-((1r,4r)-4-hydroxycyclohexyl)picolinamide], in assay [1], the IC50 was 3 nM.

For the compound `Nc1cc(F)c(-c2c(F)cccc2F)nc1C(=O)Nc1cnccc1[C@@H]1CC[C@H](O)[C@H](N)C1` [Example 65, 3-amino-N-(4-((1R,3R,4S)-3-amino-4-hydroxycyclohexyl)pyridin-3-yl)-6-(2,6-difluorophenyl)-5-fluoropicolinamide], the IC50 in assay [1] was 1 nM.

With `Nc1ccc(-c2c(F)cccc2F)nc1C(=O)Nc1cnccc1[C@@H]1CC[C@H](O)[C@@H](N)C1` [Example 104, 3-amino-N-(4-((1R,3S,4S)-3-amino-4-hydroxycyclohexyl)pyridin-3-yl)-6-(2,6-difluorophenyl)picolinamide], the IC50 in assay [1] is 3 nM.

On to `Nc1ccc(-c2c(F)cccc2F)nc1C(=O)Nc1cnccc1C1=CC(N)CCC1` (centres unmarked) [Example 107, 3-amino-N-(4-(3-aminocyclohex-1-enyl)pyridin-3-yl)-6-(2,6-difluorophenyl)picolinamide], for which the IC50 in assay [1] was determined as 2 nM.

With `COc1cc(F)c(-c2cccc(C(=O)Nc3cnccc3[C@H]3C[C@@H](N)C[C@@H](C(F)(F)F)C3)n2)c(F)c1` [Example 109, N-(4-((1R,3R,5S)-3-amino-5-(trifluoromethyl)cyclohexyl)pyridin-3-yl)-6-(2,6-difluoro-4-methoxyphenyl)picolinamide], in assay [1], the IC50 came out at 1 nM.

Regarding `C[C@H]1C[C@@H](c2ccncc2NC(=O)c2nc(-c3c(F)cccc3F)c(F)cc2N)C[C@@H](O)[C@@H]1O` [Example 121, 3-amino-6-(2,6-difluorophenyl)-N-(4-((1R,3R,4R,5S)-3,4-methylcyclohexyl)pyridin-3-yl)-5-fluoropicolinamide], the IC50 in assay [2] turned out to be 2 nM.

As for `CC1(C)C[C@H](N)C[C@H](c2ccncc2NC(=O)c2ccc(F)c(-c3c(F)cc(O)cc3F)n2)C1` [Example 122, N-(4-((1R,5R)-5-amino-3,3-dimethylcyclohexyl)pyridin-3-yl)-6-(2,6-difluoro-4-hydroxyphenyl)-5-fluoropicolinamide], the IC50 in assay [1] turned out to be 1 nM.

As for `C[C@H]1C[C@@H](c2ccncc2NC(=O)c2ccc(F)c(-c3c(F)cccc3F)n2)C[C@@H](N)[C@H]1F` [Example 139, N-(4-((1R,3R,4S,5S)-3-amino-4-fluoro-5-methylcyclohexyl)-pyridin-3-yl)-6-(2,6-difluorophenyl)-5-fluoropicolinamide], the IC50 in assay [2] came to 4 nM.
